Laboratory results: patent publication US10322135B2, “Pharmaceutical composition comprising indole compound” (LG CHEM, LTD., priority 2009, dated 2019)

Experiments:
[1] = Anti-oxidant effect by using DPPH; type: biochemical; settings: read-out: DPPH anti-oxidant effect (IC50); concentration decreasing absorbance at 517 nm to 50%; 30 min, room temperature
Method: DPPH (1,1-diphenyl-2-picrylhydrazyl) is a stable free radical and has a purple color. […] Herein, the term “IC50” refers to the concentration of a compound which decreases absorbance at 517 nm to 50% of the original value.
180 μl of DPPH solution (200 μM in DMSO) was dispensed into each well of a 96-well plate, and 20 μl of compounds, which was serially diluted two-fold from 2,000 μM, was added thereto. They were then well mixed and kept at room temperature for 30 minutes. After 30 minutes, O.D. value at 517 nm was measured with a spectraMAX ELISA reader.

H9C2 cells [2] = test: Cell protection effect against oxidative stress induced by tBOOH (SRB staining); type: cell-based; settings: Rattus norvegicus, 400 μM tBOOH 2 hrs, concentration protecting 50% of cells from necrosis
Method: It is known that tertiary-butylhydroperoxide (tBOOH) induces cell necrosis by causing oxidative stress in various cells. […] H9C2 cells were dispensed into each well of a 96-well plate (1.5×10 ^4 cells/100 μl/well). The next day, the cells were pretreated with each compound and then treated with tBOOH (final concentration: 400 μM) for 2 hrs. 50 μl of formaldehyde was added to each well to fix the cells. Cells were fixed for 30 minutes and washed with distilled water three times. Then, the plate was completely dried in a 50° C. dry oven and SRB solution was added thereto to stain remaining protein. The plate was washed with 1% acetic acid and dried. […] Herein, the term “IC50” refers to the concentration of compound which protects 50% of cells from necrosis induced by tBOOH treatment.

[3] = Direct anti-oxidant effect on H2O2 (DHR123 probe, cell-free); type: biochemical; settings: DHR123 1.25 μM, 2 hrs
Method: (§1) 10 μl of DHR123 probe (final concentration: 1.25 μM) was added to 10 μl of each compound which was diluted with 100 μl of DMEM complete media. H2O2 and tBOOH were added as the concentration shown in the following Table 5 and after 2 hrs, fluorescence at wavelengths (480 nm (ex)/538 nm (em)) was measured with spectraMax gemini. Herein, the term “IC25” refers to the concentration of compound which causes 25% decrease of fluorescence assuming the amount emitted by oxidation of DHR123 caused by H2O2 or tBOOH was 100%.

[4] = Direct anti-oxidant effect on tBOOH (DHR123 probe, cell-free); type: biochemical; settings: DHR123 1.25 μM, 2 hrs
Method: as §1

[5] = Removal capacity of ONOO− (peroxynitrite) by using dihydrorhodamine 123; type: biochemical; settings: 50% inhibition of DHR123 oxidation by 1 μM ONOO−
Method: ONOO^− (peroxynitrite), which is known as a kind of RNS, plays a very important role in oxidative stress. Thus, it is very important to evaluate the removal capacity of ONOO^− of necrosis inhibitors. It is well known that DHR123 probe is oxidized by ONOO^−. Thus, by using such a property, the capacity of each compound was measured.
10 μl of each compound, which was serially diluted 3-fold from 50 μM, was dispensed into each well of a 96-well plate, and then 170 μl of assay mixture (10 μM DHR123, 1×PBS, 100 μM DPTA without ONOO^−) was added to each well. Finally, 20 μl of ONOO^− solution (final concentration: 1 μM) was added to initiate a reaction. Herein, the term “IC50” refers to the concentration of compounds which causes 50% inhibition of oxidation of DHR123 by ONOO^−.

H9C2 cells [6] = test: Anti-oxidant effect by using dihydrorhodamine 123 in tBOOH-treated H9C2 cells; type: cell-based; settings: 1 hr pretreatment, 400 μM tBOOH 2 hrs, 25% inhibition of DHR123 fluorescence
Method: Dihydrorhodamine 123 itself is nonfluorescent but is converted to fluorescent rhodamine 123 when it is oxidized by ROS (reactive oxygen species) or RNS (reactive nitrogen species). […] H9C2 cells were dispensed into each well of a 96-well plate (1.5×10^4 cells/100 μl/well). The next day, the cells were pretreated with each compound, which was serially diluted 3-fold from the highest concentration, for 1 hr, and then treated with 10 μl of DHR123 12.5 μM stock solution (final concentration: 1.25 μM) in 37° C. incubator for 30 minutes. The cells were then immediately treated with 400 μM tBOOH and incubated for 2 hrs. Then, fluorescence, which was excited at 480 nm and emitted at 538 nm, was measured with a spectraMAX Gemini microplate reader. […] PBS. Then 100 μl of PBS was added to each well of the 96-well plate and fluorescence of each cell was measured by immunofluorescence microscopy (fluorescence microscope: Olympus) (Because of DHR123 in cells, fluorescence is emitted in proportion to oxidation). In addition, inhibition of the generation of superoxide was measured with MitoSOX red probe (final concentration: 5 μM) as the same method.

Compound | IC50 [1] | IC50 (H9C2 cells [2]) | also measured
Cc1cc(NC2CCOCC2)c2[nH]c(C3=N[C@@H](CC(=O)O)CS3)cc2c1 [Compound 2, {(S)-2-[5-methyl-7-(tetrahydropyran-4-ylamino)-1H-indol-2-yl]-4,5-dihydro-thiazol-4-yl}-acetic acid] | 24 µM | 6.5 µM | –
Cc1nnc2n1CCN(CC[C@]1(c3cc4cc(Oc5ccccc5)cc(NC5CCCC5)c4[nH]3)CSC=N1)C2 [Compound 7, cyclopentyl-(2-{(S)-4-[2-(3-methyl-5,6-dihydro-8H-[1,2,4]triazolo[4,3-a]pyrazin-7-yl)-ethyl]-4,5-dihydro-thiazol-4-yl}-5-phenoxy-1H-indol-7-yl)-amine] | 25 µM | – | –
O=S1(=O)CCN(Cc2cc(NC3CCOCC3)c3[nH]c(-c4ccccc4)cc3c2)CC1 [Compound 9, (tetrahydropyran-4-yl)-[2-phenyl-5-(1,1-dioxo-thiomorpholin-4-yl)methyl-1H-indol-7-yl]-amine] | – | < 0.2 µM | IC25 (μM), anti-oxidant effect by using DHR 123 (H9C2 cells [6]): 0.10 µM
Cc1cc(NCC2CCOCC2)c2[nH]c(C3=N[C@@H](CC(=O)O)CS3)cc2c1 [Compound 14, ((S)-2-{5-methyl-7-[(tetrahydropyran-4-ylmethyl)-amino]-1H-indol-2-yl}-4,5-dihydro-thiazol-4-yl)-acetic acid] | 28 µM | 0.72 µM | –
c1ccc(-c2nc3cccc(NC4CCCC4)c3[nH]2)cc1 [Example 1, cyclopentyl-(2-phenyl-3H -benzimidazol-4-yl)-amine] | – | 0.6 µM | –
c1ccc(-c2nc3cccc(NC4CCOCC4)c3[nH]2)cc1 [Example 2, (2-phenyl-3H-benzimidazol-4-yl)-(tetrahydro-pyran-4-yl)-amine] | – | 2 µM | –

Second part, led by results:

IC50 [1] | Compound | IC50 (H9C2 cells [2]) | also measured
24 µM | Cc1cc(NC2CCCC2)c2[nH]c(C3=N[C@@H](CC(=O)O)CS3)cc2c1 [Compound 1, [(S)-2-(7-cyclopentylamino-5-methyl-1H-indol-2-yl)-4,5-dihydro-thiazol-4-yl]-acetic acid] | – | –
17.5 µM | Cc1cc(NC2CCCC2)c2[nH]c(C3=N[C@@H](CC(=O)O)CO3)cc2c1 [Compound 3, [(S)-2-(7-cyclopentylamino-5-methyl-1H-indol-2-yl)-4,5-dihydro-oxazol-4-yl]-acetic acid] | – | IC25(μM) H2O2 (0.3 mM) [3]: 2.2 µM; IC25(μM) H2O2 (0.6 mM) [3]: 2.15 µM; IC25(μM) tBOOH (0.2 mM) [4]: 2 µM; IC25(μM) tBOOH (0.4 mM) [4]: 2.4 µM
15 µM | O=C(O)C[C@H]1CSC(c2cc3cccc(NC4CCCC4)c3[nH]2)=N1 [Compound 4, [(S)-2-(7-cyclopentylamino-1H-indol-2-yl)-4,5-dihydro-thiazol-4-yl]-acetic acid] | – | IC25(μM) H2O2 (0.3 mM) [3]: 2.3 µM; IC25(μM) H2O2 (0.6 mM) [3]: 3.6 µM; IC25(μM) tBOOH (0.2 mM) [4]: 3 µM; IC25(μM) tBOOH (0.4 mM) [4]: 5.8 µM
20 µM | O=C(O)C[C@H]1CSC(c2cc3cc(Oc4ccccc4)cc(NC4CCCC4)c3[nH]2)=N1 [Compound 5, [(S)-2-(7-cyclopentylamino-5-phenoxy-1H-indol-2-yl)-4,5-dihydro-thiazol-4-yl]-acetic acid] | – | IC50 [5]: 3.4 µM
23 µM | O=C1CN(CC[C@H]2CSC(c3cc4cc(Oc5ccccc5)cc(NC5CCCC5)c4[nH]3)=N2)CCN1 [Compound 6, 4-{2-[(S)-2-(7-cyclopentylamino-5-phenoxy-1H-indol-2-yl)-4,5-dihydro-thiazol-4-yl]-ethyl}-piperazin-2-one] | 0.13 µM | –
20.5 µM | O=C(O)C[C@H]1CSC(c2cc3cccc(NCC4CCOCC4)c3[nH]2)=N1 [Compound 8, ((S)-2-{7-[(tetrahydropyran-4-ylmethyl)-amino]-1H-indol-2-yl}-4,5-dihydro-thiazol-4-yl)-acetic acid] | – | –
22 µM | O=S1(=O)CCN(Cc2cc(NCC3CCOCC3)c3[nH]c(-c4ccccc4)cc3c2)CC1 [Compound 10, [5-(1,1-dioxo-thiomorpholin-4-yl)methyl-2-phenyl-1H-indol-7-yl]-(tetrahydropyran-4-yl)methyl-amine] | – | –
12.5 µM | O=S1(=O)CCN(Cc2cc(N(CC3CCOCC3)CC3CCOCC3)c3[nH]c(-c4ccccc4)cc3c2)CC1 [Compound 11, [5-(1,1-dioxo-thiomorpholin-4-yl)methyl-2-phenyl-1H-indol-7-yl]-bis-[(tetrahydropyran-4-yl)methyl]-amine] | – | –
19 µM | O=C(C1CCCOC1)N1CCC(Nc2cc(CN3CCS(=O)(=O)CC3)cc3cc(-c4ccccc4)[nH]c23)CC1 (centres unmarked) [Compound 12, {4-[5-(1,1-dioxo-thiomorpholin-4-yl)methyl-2-phenyl-1H-indol-7-ylamino]-piperidin-1-yl}-(tetrahydropyran-3-yl)methanone] | – | IC25(μM) H2O2 (0.3 mM) [3]: 1.65 µM; IC25(μM) H2O2 (0.6 mM) [3]: 2 µM; IC25 (μM), anti-oxidant effect by using DHR 123 (H9C2 cells [6]): 0.24 µM; IC50 [5]: 0.21 µM; IC25(μM) tBOOH (0.2 mM) [4]: 1.95 µM; IC25(μM) tBOOH (0.4 mM) [4]: 3 µM
17 µM | CS(=O)(=O)N1CCC(Nc2cc(CN3CCS(=O)(=O)CC3)cc3cc(-c4ccccc4)[nH]c23)CC1 [Compound 13, [5-(1,1-dioxo-thiomorpholin-4-yl)methyl-2-phenyl-1H-indol-7-yl]-(1-methylsulfonyl-piperidin-4-yl)-amine] | < 0.2 µM | IC25 (μM), anti-oxidant effect by using DHR 123 (H9C2 cells [6]): <0.1 µM; IC50 [5]: 0.9 µM
